For one compound, Activity results are on record in ChEMBL document CHEMBL3044532, “Integrated control of cotton root rot disease by mixing fungal biocontrol agents and resistance inducers” (2009).

Each structure is given as a SMILES string.

Holding throughout (assay type): functional
The subject of experiment [1] is Gossypium barbadense. In words: Induction of systemic acquired resistance against Fusarium oxysporum AUSB 26325 in Gossypium barbadense seeds assessed as reduction of disease index for germination under greenhouse condition at 0.05 ml/L after 7 days relative to infected control. Details: scale not given: the % may be the effect or the level left.
For experiment [2], the system named is Gossypium barbadense. In words: Induction of systemic acquired resistance against Pythium debaryanum AUSB 26351 in Gossypium barbadense seeds assessed as increase of fresh weight of seedling under greenhouse condition at 0.05 ml/L after 7 days.
Experiment [3] has as its system Gossypium barbadense. In words: Induction of systemic acquired resistance against Pythium debaryanum AUSB 26351 in Gossypium barbadense seeds assessed as increase of germination under greenhouse condition at 0.05 ml/L after 7 days relative to control.
The test system of experiment [4] is Gossypium barbadense. In words: Induction of systemic acquired resistance against Fusarium oxysporum AUSB 26325 in Gossypium barbadense seeds assessed as increase of dry weight of seedling under greenhouse condition at 0.05 ml/L after 7 days.
The subject of experiment [5] is Gossypium barbadense. In words: Induction of systemic acquired resistance against Fusarium oxysporum AUSB 26325 in Gossypium barbadense seeds assessed as increase of fresh weight of seedling under greenhouse condition at 0.05 ml/L after 7 days.
Experiment [6] concerns Gossypium barbadense. In words: Induction of systemic acquired resistance against Pythium debaryanum AUSB 26351 in Gossypium barbadense seeds assessed as increase of dry weight of seedling under greenhouse condition at 0.05 ml/L after 7 days.
For experiment [7], the system named is Gossypium barbadense. In words: Induction of systemic acquired resistance against Pythium debaryanum AUSB 26351 in Gossypium barbadense seeds assessed as reduction of disease index for germination under greenhouse condition at 0.05 ml/L after 7 days relative to infected control. Details: scale not given: the % may be the effect or the level left.
The test system of experiment [8] is Gossypium barbadense. Kind of experiment: Induction of systemic acquired resistance against Fusarium oxysporum AUSB 26325 in Gossypium barbadense seeds assessed as increase of germination under greenhouse condition at 0.05 ml/L after 7 days relative to control.

Turning to `CSC(=O)c1cccc2nnsc12` [ACIBENZOLAR-S-METHYL], the Activity in the experiment on Gossypium barbadense [1] turned out to be 45.3%; in the experiment on Gossypium barbadense [2], 2 g; in the experiment on Gossypium barbadense [3], 40%; with Gossypium barbadense [4], 0.9 g; with Gossypium barbadense [5], 8.3 g; in the experiment with Gossypium barbadense [6] it was 0.2 g. The Activity is on record as 60% in the experiment with Gossypium barbadense [7] and 40.7% in the experiment with Gossypium barbadense [8].
